Earlier results in patent US20110052685A1, “GASTRIC RETENTIVE PHARMACEUTICAL COMPOSITIONS FOR IMMEDIATE AND EXTENDED RELEASE OF ACETAMINOPHEN” (DEPOMED, INC., priority 2009, published 2011).

Half-life (elimination, from Rawlins et al., 1977): (2.7) hr
1st Order Elimination Constant K (from Rawlins et al., 1977): 0.257 h⁻¹
Oral Bioavaiability F (from Rawlins et al., 1977): 0.89
Volume of Distribution V (from Rawlins et al., 1977): 78800 mL
Absorption Half-life (oral immediate release, fed mode): (0.76) hr
1st Order Absorption Constant (under fed mode - with food) ka (oral immediate release, from Divoll et al., 1982): 0.912 h⁻¹
Compound: CC(=O)Nc1ccc(O)cc1 [acetaminophen, N-(4-hydroxyphenyl)acetamine]
